Common to all, as to assay type: biochemical
Conditions in all cases: FDA-approved drug screen; compared to DMSO

Experiment [1] deals with T1, recombinant PRL-1 (Homo sapiens, UniProt Q93096).
T1 construct: 6xHis (N, cleaved yes); made in house; host or cells: E. coli One Shot BL21 Star
T1 sequence (Q93096 1-173): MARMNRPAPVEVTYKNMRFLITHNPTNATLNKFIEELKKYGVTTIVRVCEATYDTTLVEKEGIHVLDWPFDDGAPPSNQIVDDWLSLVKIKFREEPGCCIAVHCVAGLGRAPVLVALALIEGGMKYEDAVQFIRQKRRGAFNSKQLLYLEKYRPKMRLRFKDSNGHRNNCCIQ
Briefly: In vitro phosphatase assay (DiFMUP hydrolysis), PRL-1. Note: test concentration or dose not given here.

Experiment [2] addresses T2, recombinant PRL-2 (Homo sapiens, UniProt Q12974).
T2 construct: 6xHis (N, cleaved yes); made in house; host or cells: E. coli One Shot BL21 Star
T2 sequence (Q12974 1-167): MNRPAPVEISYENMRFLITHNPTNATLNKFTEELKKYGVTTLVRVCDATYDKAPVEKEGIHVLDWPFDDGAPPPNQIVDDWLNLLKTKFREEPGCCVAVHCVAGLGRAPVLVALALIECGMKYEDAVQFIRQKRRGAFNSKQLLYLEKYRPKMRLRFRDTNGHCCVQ
Briefly: In vitro phosphatase assay (DiFMUP hydrolysis), PRL-2.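 Note: PRL-2 activity read as DiFMUP hydrolysis after 20 min at room temperature with drug, enzyme first pre-reduced at 4 °C for 20 min.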
Description: Briefly, protein was diluted in reaction buffer and allowed to incubate at 4 °C for 20 min to allow for full reduction of the active site. DiFMUP, drug, and protein were added, and plates were incubated for 20 min at room temperature. Fluorescence intensities were measured on a Cytation 5 plate reader (Biotek) at an EX:360 nm and EM:460 nm. […] Inhibition selectivity for PRLs over a panel of other phosphatases was determined using PhosphataseProfiler (Eurofins, Cat # PP260).

Experiment [3] concerns the target T3, recombinant PRL-3 (Homo sapiens, UniProt O75365).
T3 construct: 6xHis (N, cleaved yes); made in house; host or cells: E. coli One Shot BL21 Star
Briefly: In vitro phosphatase assay (DiFMUP hydrolysis), PRL-3. Note: test concentration or dose not given here.

Structures can show the parent of a compound that is named as a salt.

T3 sequence (O75365 whole entry): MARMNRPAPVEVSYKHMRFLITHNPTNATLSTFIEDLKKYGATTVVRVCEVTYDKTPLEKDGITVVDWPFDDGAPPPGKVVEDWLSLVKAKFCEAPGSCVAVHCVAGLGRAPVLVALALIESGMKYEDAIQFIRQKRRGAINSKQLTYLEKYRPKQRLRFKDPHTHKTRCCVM

`CC1(C)CCC(CN2CCN(c3ccc(C(=O)NS(=O)(=O)c4ccc(NCC5CCOCC5)c([N+](=O)[O-])c4)c(Oc4cnc5[nH]ccc5c4)c3)CC2)=C(c2ccc(Cl)cc2)C1` [ABT-199 (GDC-0199)]: the “% Phosphatase Activity (compared to DMSO) PRL-1” value in experiment [1] turned out to be 68%. Besides, in experiment [2], the “% Phosphatase Activity (compared to DMSO) PRL-2” value was determined as 30%. Besides, the “% Phosphatase Activity (compared to DMSO) PRL-3” value in experiment [3] is recorded as 78%.
Regarding `CC1(C)CCC(c2ccc(Cl)cc2)=C(CN2CCN(c3ccc(C(=O)NS(=O)(=O)c4ccc(N[C@H](CCN5CCOCC5)CSc5ccccc5)c(S(=O)(=O)C(F)(F)F)c4)cc3)CC2)C1` [ABT-263 (Navitoclax)], the “% Phosphatase Activity (compared to DMSO) PRL-1” value in experiment [1] is 90%. Also, the “% Phosphatase Activity (compared to DMSO) PRL-2” value in experiment [2] was determined as 75%. In addition, the “% Phosphatase Activity (compared to DMSO) PRL-3” value in experiment [3] is given as 81%.
Take `CC(C)c1cc(C(=O)N2Cc3ccc(CN4CCN(C)CC4)cc3C2)c(O)cc1O` [AT13387]: the “% Phosphatase Activity (compared to DMSO) PRL-1” value in experiment [1] is 98%. Also, the “% Phosphatase Activity (compared to DMSO) PRL-2” value in experiment [2] is 100%. Moreover, the “% Phosphatase Activity (compared to DMSO) PRL-3” value in experiment [3] was 82%.
The corresponding values for `C=CC(=O)Nc1cc(Nc2nccc(-c3cn(C)c4ccccc34)n2)c(OC)cc1N(C)CCN(C)C` [AZD9291] are 88%, 89% and 100%.
For the compound `Nc1nc(NC2CC2)c2ncn([C@H]3C=C[C@@H](CO)C3)c2n1` [Abacavir sulfate], the “% Phosphatase Activity (compared to DMSO) PRL-1” value in experiment [1] came out at 88%. In experiment [2], the “% Phosphatase Activity (compared to DMSO) PRL-2” value is given as 85%. Besides, the “% Phosphatase Activity (compared to DMSO) PRL-3” value in experiment [3] is on record as 111%.
With `NC(=O)c1ncn([C@@H]2O[C@H](CO)[C@@H](O)[C@H]2O)c1N` [Acadesine], the “% Phosphatase Activity (compared to DMSO) PRL-1” value in experiment [1] is recorded as 91%. Further, the “% Phosphatase Activity (compared to DMSO) PRL-2” value in experiment [2] was determined as 100%. Besides, in experiment [3], the “% Phosphatase Activity (compared to DMSO) PRL-3” value was 95%.
The corresponding values for `C[C@H]1O[C@H](O[C@H]2[C@H](O)[C@@H](O)[C@@H](O[C@H]3[C@H](O)[C@@H](O)C(O)O[C@@H]3CO)O[C@@H]2CO)[C@H](O)[C@@H](O)[C@@H]1N[C@H]1C=C(CO)[C@@H](O)[C@H](O)[C@H]1O` (stereo partly drawn) [Acarbose] are 94%, 102% and 73%.
The corresponding values for `CCCC(=O)Nc1ccc(OCC(O)CNC(C)C)c(C(C)=O)c1` (stereo not drawn) [Acebutolol HCl] are 105%, 123% and 86%.
In the case of `CC(=O)OC1CN2CCC1CC2` (stereo not drawn) [Aceclidine HCl], the “% Phosphatase Activity (compared to DMSO) PRL-1” value in experiment [1] is on record as 97%. The “% Phosphatase Activity (compared to DMSO) PRL-2” value in experiment [2] is 95%. Besides, the “% Phosphatase Activity (compared to DMSO) PRL-3” value in experiment [3] is listed as 85%.
In the same order, the values of `CC(=O)NC(CCC(N)=O)C(=O)O` (stereo not drawn) [Aceglutamide] are 107%, 96% and 87%.
Take `COc1ccc2c(c1)c(CC(=O)OCC(=O)O)c(C)n2C(=O)c1ccc(Cl)cc1` [Acemetacin]: in experiment [1], the “% Phosphatase Activity (compared to DMSO) PRL-1” value is 93%. For the same compound, the “% Phosphatase Activity (compared to DMSO) PRL-2” value in experiment [2] is on record as 121%. For the same compound, the “% Phosphatase Activity (compared to DMSO) PRL-3” value in experiment [3] worked out at 94%.
The corresponding values for `CC(=O)Nc1ccccc1` [Acetanilide] are 110%, 110% and 81%.
`CC(=O)Nc1nnc(S(N)(=O)=O)s1` [Acetazolamide]: in experiment [1], the “% Phosphatase Activity (compared to DMSO) PRL-1” value is 91%. The “% Phosphatase Activity (compared to DMSO) PRL-2” value in experiment [2] is on record as 97%. Further, in experiment [3], the “% Phosphatase Activity (compared to DMSO) PRL-3” value came to 88%.
With `CC(=O)NO` [Acetohydroxamic acid], the “% Phosphatase Activity (compared to DMSO) PRL-1” value in experiment [1] came to 91%. Also, the “% Phosphatase Activity (compared to DMSO) PRL-2” value in experiment [2] worked out at 111%. Moreover, in experiment [3], the “% Phosphatase Activity (compared to DMSO) PRL-3” value came to 75%.
In the same order, the values of `CC(=O)OCC[N+](C)(C)C` [Acetylcholine Chloride] are 87%, 97% and 95%.
For `CC(=O)N[C@@H](CS)C(=O)O` [Acetylcysteine], the “% Phosphatase Activity (compared to DMSO) PRL-1” value in experiment [1] was found to be 89%. For the same compound, the “% Phosphatase Activity (compared to DMSO) PRL-2” value in experiment [2] is reported as 99%. The “% Phosphatase Activity (compared to DMSO) PRL-3” value in experiment [3] is 70%.
With `CC(=O)NC(CC(C)C)C(=O)O` (stereo not drawn) [Acetylleucine], the “% Phosphatase Activity (compared to DMSO) PRL-1” value in experiment [1] is 110%. For the same compound, in experiment [2], the “% Phosphatase Activity (compared to DMSO) PRL-2” value was 99%. In experiment [3], the “% Phosphatase Activity (compared to DMSO) PRL-3” value came out at 89%.
